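Interpolation was linear, between the two tested concentrations surrounding the appropriate level; five concentrations were tested over 48 hours in 96-well plates. GI50 marks 50% less growth.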 Active and inactive are the calls of the source. Cut-off read from the data, not from the text of the source: active = GI50 up to about 1.1 µM and inactive = higher.
Experiments:
Assay in all cases: NCI-60 cell line screen, 48 h
NCI-H23 = test system: NCI-H23
HL-60 = test system: HL-60
NCI-H460 = test system: NCI-H460
IGROV-1 = test system: IGROV-1
KM12 = test system: KM12
SF-295 = test system: SF-295
SF-539 = test system: SF-539
HT-29 = test system: HT-29
SNB-19 = test system: SNB-19
RPMI-8226 = test system: RPMI-8226
UO-31 = test system: UO-31
SK-OV-3 = test system: SK-OV-3
RXF 393 = test system: RXF 393
A549 = test system: A549

SMILES	GI50 (NCI-H23)	GI50 (HL-60)	GI50 (NCI-H460)	GI50 (IGROV-1)	GI50 (KM12)	GI50 (SF-295)	GI50 (SF-539)	GI50 (HT-29)	GI50 (SNB-19)	GI50 (RPMI-8226)	GI50 (UO-31)	GI50 (SK-OV-3)	GI50 (RXF 393)	GI50 (A549)
CSC(=N)N1N=C2c3ccccc3CC[C@@H]2[C@@H]1c1ccccc1	15.2 µM (inactive)	10.6 µM (inactive)	13.2 µM (inactive)	14.5 µM (inactive)	14.4 µM (inactive)	14.4 µM (inactive)	13.9 µM (inactive)	10.3 µM (inactive)	16.4 µM (inactive)	12.1 µM (inactive)	9.64 µM (inactive)	18.1 µM (inactive)	13.9 µM (inactive)	17.6 µM (inactive)
N#CC(C#N)=C1NC(=O)CC(=O)N1	> 100 µM (inactive)	> 100 µM (inactive)	> 100 µM (inactive)	> 100 µM (inactive)	> 100 µM (inactive)	> 100 µM (inactive)	> 100 µM (inactive)	> 100 µM (inactive)	> 100 µM (inactive)	> 100 µM (inactive)	> 100 µM (inactive)	> 100 µM (inactive)	> 100 µM (inactive)	> 100 µM (inactive)
C=C1CC(CCCl)(c2ccccc2)OC1=O (stereo unspecified)	> 100 µM (inactive)	19.8 µM (inactive)	> 100 µM (inactive)	> 100 µM (inactive)	44.7 µM (inactive)	> 100 µM (inactive)	27.9 µM (inactive)	33 µM (inactive)	> 78.7 µM (inactive)	15.8 µM (inactive)	58.3 µM (inactive)	> 100 µM (inactive)	13.3 µM (inactive)	> 71.9 µM (inactive)
NNC(=O)N/N=C1\CNC(=O)C(=O)C1c1nc2ccccc2s1 (stereo unspecified)	> 100 µM (inactive)	> 100 µM (inactive)	> 100 µM (inactive)	> 100 µM (inactive)	> 100 µM (inactive)	> 100 µM (inactive)	> 100 µM (inactive)	> 100 µM (inactive)	> 100 µM (inactive)	> 100 µM (inactive)	> 100 µM (inactive)	> 100 µM (inactive)	> 100 µM (inactive)	> 100 µM (inactive)
C[C@@H](CO)OCOCc1ccccc1	> 100 µM (inactive)	> 100 µM (inactive)	> 100 µM (inactive)	> 100 µM (inactive)	> 100 µM (inactive)	> 100 µM (inactive)	> 100 µM (inactive)	> 100 µM (inactive)	> 100 µM (inactive)	> 100 µM (inactive)	> 100 µM (inactive)	> 100 µM (inactive)	> 100 µM (inactive)	> 100 µM (inactive)
C=CCCCC(C#N)(c1ccccc1)N1CCCC1 (stereo unspecified)	> 100 µM (inactive)	> 100 µM (inactive)	> 100 µM (inactive)	> 100 µM (inactive)	> 100 µM (inactive)	> 100 µM (inactive)	> 100 µM (inactive)	> 100 µM (inactive)	> 100 µM (inactive)	> 100 µM (inactive)	> 100 µM (inactive)	> 100 µM (inactive)	> 100 µM (inactive)	> 100 µM (inactive)
Cc1c(C(=O)C/C(=N/NC(=O)C[n+]2ccccc2)C(=O)Nc2ccccc2)[n+]([O-])c2ccccc2[n+]1[O-]	> 100 µM (inactive)	> 100 µM (inactive)	> 100 µM (inactive)	> 100 µM (inactive)	> 100 µM (inactive)	> 100 µM (inactive)	> 100 µM (inactive)	> 100 µM (inactive)	> 100 µM (inactive)	> 100 µM (inactive)	> 100 µM (inactive)	> 100 µM (inactive)	> 100 µM (inactive)	> 100 µM (inactive)
C#C[C@]1(O)CCCC2=CC(=O)CC[C@@]21C	> 100 µM (inactive)	> 100 µM (inactive)	> 100 µM (inactive)	> 100 µM (inactive)	> 100 µM (inactive)	> 100 µM (inactive)	> 100 µM (inactive)	> 100 µM (inactive)	> 100 µM (inactive)	> 100 µM (inactive)	> 100 µM (inactive)	> 100 µM (inactive)	> 100 µM (inactive)	> 100 µM (inactive)
CCC(CO)COC(=O)/C=C/C(=O)OCC(CC)CO (stereo unspecified)	> 84.7 µM (inactive)	22.1 µM (inactive)	> 100 µM (inactive)	> 100 µM (inactive)	> 100 µM (inactive)	> 100 µM (inactive)	> 100 µM (inactive)	> 91 µM (inactive)	> 100 µM (inactive)	33.3 µM (inactive)	> 100 µM (inactive)	> 100 µM (inactive)	> 65.3 µM (inactive)	> 100 µM (inactive)
COc1c(OC2OC(CO)C(O)C(O)C2O)cc2c(c1OC)-c1ccc(OC)c(=O)cc1C(NC(C)=O)CC2 (stereo unspecified)	> 100 µM (inactive)	> 100 µM (inactive)	> 100 µM (inactive)	> 84.1 µM (inactive)	> 100 µM (inactive)	> 87.3 µM (inactive)	> 100 µM (inactive)	> 100 µM (inactive)	> 100 µM (inactive)	> 100 µM (inactive)	> 100 µM (inactive)	> 100 µM (inactive)	> 83.6 µM (inactive)	> 100 µM (inactive)
CCOC(=O)/C(=C/c1ccccc1Br)P(=O)(OCC)OCC	1.73 µM (inactive)	0.226 µM (active)	2.87 µM (inactive)	3.28 µM (inactive)	1.87 µM (inactive)	3.96 µM (inactive)	2.4 µM (inactive)	2.82 µM (inactive)	2.49 µM (inactive)	0.815 µM (active)	–	–	1.17 µM (inactive)	2.67 µM (inactive)
Cc1cc2c(=O)cc(-c3ccncc3)oc2c(C(=O)O)c1C	> 100 µM (inactive)	> 100 µM (inactive)	> 100 µM (inactive)	> 100 µM (inactive)	–	> 100 µM (inactive)	> 100 µM (inactive)	> 100 µM (inactive)	> 100 µM (inactive)	> 100 µM (inactive)	> 100 µM (inactive)	> 100 µM (inactive)	> 100 µM (inactive)	> 100 µM (inactive)
Cn1c(=O)c2c3ccccc3c(C(=O)c3ccccc3)n2c2ccccc21	23.3 µM (inactive)	4.65 µM (inactive)	3.48 µM (inactive)	> 100 µM (inactive)	2.44 µM (inactive)	5.69 µM (inactive)	16.3 µM (inactive)	3.63 µM (inactive)	> 43.3 µM (inactive)	3.55 µM (inactive)	> 52.7 µM (inactive)	–	14.7 µM (inactive)	56.8 µM (inactive)
O=C(Nc1cccc(Cl)c1)c1cc2cc(/N=N/c3ccc(Br)cc3)ccc2oc1=O	22.6 µM (inactive)	–	36 µM (inactive)	51.5 µM (inactive)	19.2 µM (inactive)	42 µM (inactive)	56.2 µM (inactive)	66.7 µM (inactive)	25.1 µM (inactive)	33.2 µM (inactive)	14 µM (inactive)	51.2 µM (inactive)	16.1 µM (inactive)	90.6 µM (inactive)
